System: KRAS PDC multicell spheroid viability
Experiment: Anticancer human tumor 825966-067-R-J1-PDC patient-derived colon carcinoma cell line growth inhibition [KRAS2]
Conditions: for IC50: curve of first compound; for viability, T/C: stronger effect = lower value
Procedure, shortened: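 KRAS-mutant tumor cells were grown as spheroids with HUVEC endothelial cells and human MSCs as stroma. Targeted agents were tested alone and with KRAS pathway inhibitors. Doses started at or near clinical Cmax, or 10 microM, descending half-log.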

[1] = second compound 0.1 µM, first compound 0.0316 µM
[2] = second compound 0.1 µM, first compound 0.1 µM
[3] = second compound 0.1 µM, first compound 0.316 µM
[4] = second compound 0.1 µM, first compound 1 µM
[5] = second compound 0.1 µM, first compound 3.16 µM
[6] = second compound 0.316 µM, first compound 0.0316 µM
[7] = second compound 0.316 µM, first compound 0.1 µM
[8] = second compound 0.316 µM, first compound 0.316 µM
[9] = second compound 0.316 µM, first compound 1 µM
[10] = second compound 0.316 µM, first compound 3.16 µM
[11] = second compound 1 µM, first compound 0.0316 µM
[12] = second compound 1 µM, first compound 0.1 µM
[13] = second compound 1 µM, first compound 0.316 µM
[14] = second compound 1 µM, first compound 1 µM
[15] = second compound 1 µM, first compound 3.16 µM
[16] = second compound 3.16 µM, first compound 0.0316 µM
[17] = second compound 3.16 µM, first compound 0.1 µM
[18] = second compound 3.16 µM, first compound 0.316 µM
[19] = second compound 3.16 µM, first compound 1 µM
[20] = second compound 3.16 µM, first compound 3.16 µM
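Further: spheroids exposed to compounds for 7 days.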
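Wherever viability, T/C is given: 100% = DMSO vehicle control viability.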

SMILES	IC50 (second compound 0.1 µM)	IC50 (second compound 0.316 µM)	IC50 (second compound 1 µM)	IC50 (second compound 3.16 µM)	viability, T/C [1]	viability, T/C [2]	viability, T/C [3]	viability, T/C [4]	viability, T/C [5]	viability, T/C [6]	viability, T/C [7]	viability, T/C [8]	viability, T/C [9]	viability, T/C [10]	viability, T/C [11]	viability, T/C [12]	viability, T/C [13]	viability, T/C [14]	viability, T/C [15]	viability, T/C [16]	further results
COc1cc2nccc(Oc3ccc(NC(=O)C4(C(=O)Nc5ccc(F)cc5)CC4)cc3)c2cc1OC + C=CC(=O)N1CCN(c2nc(OCC3CCCN3C)nc3c2CCN(c2cccc4cccc(C)c24)C3)CC1CC#N	1800 nM	1660 nM	1590 nM	688 nM	117%	97.3%	74.1%	86.3%	15.3%	122%	91.6%	107%	79.7%	12%	103%	78.7%	78.1%	81.3%	3.62%	86.1%	IC50 (second compound 0.0316 µM): 1640 nM; viability, T/C (second compound 0.0316 µM, first compound 0.0316 µM): 96.4%; viability, T/C (second compound 0.0316 µM, first compound 0.1 µM): 106%; viability, T/C (second compound 0.0316 µM, first compound 0.316 µM): 84%; viability, T/C (second compound 0.0316 µM, first compound 1 µM): 83.1%; viability, T/C (second compound 0.0316 µM, first compound 3.16 µM): 4.36%; viability, T/C (second compound 0.0316 µM, first compound 10 µM): 8.53%; viability, T/C (second compound 0.1 µM, first compound 10 µM): 7.78%; viability, T/C (second compound 0.316 µM, first compound 10 µM): 7.79%; viability, T/C (second compound 1 µM, first compound 10 µM): 2%; viability, T/C [17]: 83.6%; viability, T/C [18]: 108%; viability, T/C [19]: 29.5%; viability, T/C [20]: 0.34%; viability, T/C (second compound 3.16 µM, first compound 10 µM): 0.17%
CC(=O)OC12COC1CC(O)C1(C)C(=O)C(O)C3=C(C)C(OC(=O)C(O)C(NC(=O)OC(C)(C)C)c4ccccc4)CC(O)(C(OC(=O)c4ccccc4)C21)C3(C)C (stereo not given) + C=CC(=O)N1CCN(c2nc(=O)n(-c3c(C)ccnc3C(C)C)c3nc(-c4c(O)cccc4F)c(F)cc23)C(C)C1	< 10 nM	< 10 nM	< 10 nM	< 10 nM	30.6%	20.5%	20.9%	22.8%	31.5%	24%	24.6%	26%	28.5%	29.7%	34.3%	25.9%	23.9%	23.1%	22.5%	27.3%	IC50 (second compound 10 µM): < 10 nM; viability, T/C (second compound 0.1 µM, first compound 0.01 µM): 33.9%; viability, T/C (second compound 0.316 µM, first compound 0.01 µM): 26.8%; viability, T/C (second compound 1 µM, first compound 0.01 µM): 27.9%; viability, T/C (second compound 3.16 µM, first compound 0.01 µM): 38.3%; viability, T/C [17]: 25.5%; viability, T/C [18]: 23.2%; viability, T/C [19]: 26.9%; viability, T/C [20]: 39.2%; viability, T/C (second compound 10 µM, first compound 0.01 µM): 30.8%; viability, T/C (second compound 10 µM, first compound 0.0316 µM): 34.9%; viability, T/C (second compound 10 µM, first compound 0.1 µM): 24.1%; viability, T/C (second compound 10 µM, first compound 0.316 µM): 26.7%; viability, T/C (second compound 10 µM, first compound 1 µM): 17.1%; viability, T/C (second compound 10 µM, first compound 3.16 µM): 24.5%

Reference: PubChem BioAssay AID1963865 (Molecular Pharmacology Branch, DTP, NCI, 2024)
